Values quoted from earlier work as cited in patent EP1921109A2, “Grafted cyclodextrin” (Cellresin Technologies, LLC, priority 2004, dated 2005).

Columns and labels:
[1] = aqueous solutions

SMILES | Flavor Threshold ppb in Water | Odor Threshold ppb in Water | Concentrations of TCA detected in untrained panels [1] | Concentrations of TCA detected by trained panels ([1]; as low as)
CCCCCCCCCC=O [Decanal] | 1.07 ppb | 0.53 ppb | – | –
CCCC(=O)OCC [Ethyl butyrate] | 0.13 ppb | 0.13 ppb | – | –
CC(C)=CCC/C(C)=C/C=O [Geranial] | 40.0 ppb | – | – | –
CCCCCC=O [Hexanal] | 3.66 ppb | 9.18 ppb | – | –
C=C(C)[C@H]1CC=C(C)CC1 [Limonene] | 210 ppb | 60 ppb | – | –
C=CC(C)(O)CCC=C(C)C (centres unmarked) [Linalool] | 3.8 ppb | 5.3 ppb | – | –
CC(C)=CCC/C(C)=C\C=O [Neral] | 41.4 ppb | 85 ppb | – | –
CCCCCCCC=O [Octanal] | 0.52 ppb | 1.41 ppb | – | –
COc1c(Cl)cc(Cl)cc1Cl [TCA, 2,4,6-trichloroanisole] | – | – | 20 - 30 ppt | 5 - 10 ppt
CC1=CCC2CC1C2(C)C (stereo not drawn) [α-Pinene] | 1014 ppb | 9.5 ppb | – | –
CC1=CCC(C(C)(C)O)CC1 (stereo not drawn) [α-Terpineol] | 300 ppb | 280 ppb | – | –
C=CC(=C)CCC=C(C)C [β-Myrcene] | 42 ppb | 36 ppb | – | –
